# Assay results from patent US11976054B2, “Amide derivative and preparation method therefore and use thereof in medicine” (Chengdu Baiyu Pharmaceutical Co., Ltd., priority 2019, dated 2024).
# Tests used:
# [1] = Pharmacokinetic analysis of compounds in rats; format: in vivo, SD rats; conditions: for F %: po 10 mg/kg vs iv 1 mg/kg
# Description: Healthy adult SD rats weighing 180-220 g were fasted (free access to water) overnight and divided into tail vein administration group and intragastric administration group. The tail vein administration group was subjected to blood collection of 0.1 mL from orbital venous plexus before the administration and 5 min, 15 min, 0.5 h, 1 h, 2 h, 4 h, 8 h, 12 h and 24 h after the administration, and plasma was separated out by centrifugation at 4° C. for 5 min and stored at −20° C. for test. The intragastric administration group was subjected to blood collection of 0.1 mL from orbital venous plexus before the administration and 5 min, 15 min, 0.5 h, 1 h, 2 h, 4 h, 8 h, 12 h and 24 h after the administration, and the subsequent treatment procedures were the same as those of the tail vein injection group. The concentration of parent drug in the plasma was determined by LC-MS/MS.
# [2] = test system: Human monocyte cell line THP-1; experiment: Detection of THP-1 cell pyroptosis (Caspase-Glo 1 Inflammasome Assay); format: cell-based; conditions: 20 nM PMA 48 h, 1 μg/mL LPS, compound 3 h
# Description: Human monocyte cell line THP-1 (ATCC® TB-202TM) was cultured in RPMI-1640 culture medium containing […], 1 mM pyruvic acid, 0.05 mM β-mercaptoethanol and 10% double antibody under the culture conditions of 37° C. and […].
# Cell counting was performed, THP-1 cells were seeded into a 96-well plate at 50000 per well, and 20 nM PMA was added for inducing at 37° C./5% CO2 for 48 h. The culture medium was then discarded, and 100 μL of serum-free RPMI-1640 medium containing 1 μg/mL LPS was added. 5 μL of compound or solvent control was added and 3-fold diluted in gradient from a maximum concentration of 10 μM, and 10 gradient concentrations were set. The mixtures were incubated at 37° C./5% CO2 for 3 h. After the incubation, the mixtures were centrifuged at 300 g for 5 min, and the culture medium was discarded. Pyroptosis assay was performed according to specific steps described in instructions of Caspase-Glo® 1 Inflammasome Assay kit. IC50 was calculated using GraphPad Prism7.0 software.
# [3] = SD rats, iv (tail vein), 1 mg/kg, plasma
# [4] = SD rats, po (intragastric), 10 mg/kg, plasma
# [5] = Homo sapiens, THP-1, THP-1 pyroptosis
molecule,measurement,setting,value
"C[C@@H](c1ccc2c(c1NC(=O)NS(=N)(=O)c1cc(C(C)(C)O)co1)CC2)C1CC1 (mixture of isomers) [Compound 38-1, RS- and SS-N-((3-((R)-1-cyclopropylethyl)bicyclo[4.2.0]octa-1(6),2,4-trien-2-yl)carbamoyl)-4-(2-hydroxypropan-2-yl)furan-2-sulfonimidamide]",AUC,[1]; [3],2112 ng·h/mL
same,Cl,[1]; [3],8.2 mL/min/kg
same,Vss,[1]; [3],0.679 L/kg
same,t1/2,[1]; [3],2.2 h
same,F %,[1]; SD rats,184%
same,AUC,[1]; [4],38823 ng·h/mL
same,Cmax,[1]; [4],13267 ng/mL
same,t1/2,[1]; [4],3.1 h
same,IC50,[2]; THP-1 pyroptosis,≤ 100 nM
"C[C@@H](c1ccc2c(c1NC(=O)NS(=N)(=O)c1cc(C(C)(C)O)co1)CCC2)C1CC1 (mixture of isomers) [Compound 6-2, (RS, RC)- and (SS, RC)-N-((5-(-1-cyclopropylethyl)-2,3-dihydro-1H-inden-4-yl)carbamoyl)-4-(2-hydroxypropan-2-yl)furan-2-sulfonimidamide]",AUC,[1]; [3],1657 ng·h/mL
same,Cl,[1]; [3],10.2 mL/min/kg
same,Vss,[1]; [3],0.781 L/kg
same,t1/2,[1]; [3],1.5 h
same,F %,[1]; SD rats,65.9%
same,AUC,[1]; [4],10920 ng·h/mL
same,Cmax,[1]; [4],4073 ng/mL
same,t1/2,[1]; [4],2.8 h
same,IC50,[2]; THP-1 pyroptosis,100 to 500 nM
"CC(c1ccc2c(c1NC(=O)NS(=N)(=O)c1cc(C(C)(C)O)co1)CCC2)C1CC1 (racemic) [Compound 8-2, (RS, SC)- and (SS, SC)-N-((5-(1-cyclopropylethyl)-2,3-dihydro-1H-inden-4-yl)carbamoyl)-4-(2-hydroxypropan-2-yl)furan-2-sulfonimidamide]",AUC,[1]; [3],2170 ng·h/mL
same,Cl,[1]; [3],7.8 mL/min/kg
same,Vss,[1]; [3],0.656 L/kg
same,t1/2,[1]; [3],2.0 h
same,F %,[1]; SD rats,66.7%
same,AUC,[1]; [4],14484 ng·h/mL
same,Cmax,[1]; [4],6190 ng/mL
same,t1/2,[1]; [4],3.4 h
same,IC50,[2]; THP-1 pyroptosis,500 to 1000 nM
"CC(c1ccc2c(c1NC(=O)NS(=N)(=O)c1cc(C(C)(C)O)co1)CC2)C1CC1 (racemic) [Compound 36-1, (RS, SC)- and (SS, SC)-N-((3-(1-cyclopropylethyl)bicyclo[4.2.0]octa-1(6),2,4-trien-2-yl)carbamoyl)-4-(2-hydroxypropan-2-yl)furan-2-sulfonimidamide]",AUC,[1]; [3],14614 ng·h/mL
same,Cl,[1]; [3],1.3 mL/min/kg
same,Vss,[1]; [3],0.22 L/kg
same,t1/2,[1]; [3],3.9 h
same,F %,[1]; SD rats,98.5%
same,AUC,[1]; [4],143938 ng·h/mL
same,Cmax,[1]; [4],33467 ng/mL
same,t1/2,[1]; [4],2.9 h
same,IC50,[2]; THP-1 pyroptosis,≤ 100 nM
"CC(C)(O)c1coc(S(=N)(=O)NC(=O)Nc2c(CC3CCC3)ccc3c2CCC3)c1 (single isomer, unassigned) [Compound 18-1, RS- and SS-N-((5-(cyclobutylmethyl)-2,3-dihydro-1H-inden-4-yl)carbamoyl)-4-(2-hydroxypropan-2-yl)furan-2-sulfonimidamide]",AUC,"[1]; rat, in vivo, iv, 1 mg/kg",2226 ng·h/mL
same,Cl,"[1]; rat, in vivo, iv, 1 mg/kg",7.59 mL/min/kg
same,Vss,"[1]; rat, in vivo, iv, 1 mg/kg",0.845 L/kg
same,t1/2,"[1]; rat, in vivo, iv, 1 mg/kg",2.2 h
same,AUC,"[1]; rat, in vivo, po, 10 mg/kg",20153 ng·h/mL
same,Cmax,"[1]; rat, in vivo, po, 10 mg/kg",9867 ng/mL
same,t1/2,"[1]; rat, in vivo, po, 10 mg/kg",2.9 h
same,IC50,[2]; THP-1 pyroptosis,500 to 1000 nM
"C[C@H](c1ccc2c(c1NC(=O)NS(=N)(=O)c1ccc(C3(O)COC3)s1)CCC2)C1CC1 (stereo partly drawn) [Compound 65C, N-((5-((S)-1-cyclopropylethyl)-2,3-dihydro-1H-inden-4-yl)carbamoyl)-5-(3-hydroxyoxetan-3-yl)thiophene-2-sulfonimidamide]",IC50,[2]; [5],100 to 500 nM
C[C@@H](c1ccc2c(c1NC(=O)NS(=O)(=O)c1ccc(C3(O)CCOCC3)s1)CCC2)C1CC1 [Compound 68],IC50,[2]; [5],100 to 500 nM
"CC(C)c1cccc([C@@H](C)C2CC2)c1NC(=O)NS(=O)(=O)c1cc(C(C)(C)O)co1 [Compound 71, (S)-N-((2-(1-cyclopropylethyl)-6-isopropylphenyl)carbamoyl)-4-(2-hydroxypropan-2-yl)furan-2-sulfonamide]",IC50,[2]; [5],100 to 500 nM
CC(C)c1cccc([C@H](C)C2CC2)c1NC(=O)NS(=O)(=O)c1cc(C(C)(C)O)co1 [Compound 72],IC50,[2]; [5],100 to 500 nM
"C[C@@H](c1ccc2c(c1NC(=O)NS(=O)(=O)c1cc(C(C)(C)O)co1)CCC2)C1CCC1 [Compound 79, (R)-N-((5-(1-cyclobutylethyl)-2,3-dihydro-1H-inden-4-yl)carbamoyl)-4-(2-hydroxypropan-2-yl)furan-2-sulfonamide]",IC50,[2]; [5],100 to 500 nM
"C[C@H](c1ccc2c(c1NC(=O)NS(=O)(=O)c1cc(C(C)(C)O)co1)CCC2)C1CCC1 [Compound 81, (S)-N-((5-(1-cyclobutylethyl)-2,3-dihydro-1H-inden-4-yl)carbamoyl)-4-(2-hydroxypropan-2-yl)furan-2-sulfonamide]",IC50,[2]; [5],1000 to 5000 nM
"CC(C)(O)c1csc(S(=N)(=O)NC(=O)Nc2c(CC3CCC3)ccc3c2CCC3)c1 (stereo not shown) [Compound 83A, N-((5-(cyclobutylmethyl)-2,3-dihydro-1H-inden-4-yl)carbamoyl)-4-(2-hydroxypropan-2-yl)thiophene-2-sulfonimidamide]",IC50,[2]; [5],≤ 100 nM
"CC(C)(O)c1coc(S(=O)(=O)NC(=O)Nc2c(C(C3CC3)C3CC3)ccc3c2CCC3)c1 [Compound 86, N-((5-(dicyclopropylmethyl)-2,3-dihydro-1H-inden-4-yl)carbamoyl)-4-(2-hydroxypropan-2-yl)furan-2-sulfonamide]",IC50,[2]; [5],500 to 1000 nM
"C[C@H](c1ccc2c(c1NC(=O)NS(=O)(=O)c1cnc(C(C)(C)O)s1)CCC2)C1CC1 [Compound 88, (S)-N-((5-(1-cyclopropylethyl)-2,3-dihydro-1H-inden-4-yl)carbamoyl)-2-(2-hydroxypropan-2-yl)thiazole-5-sulfonamide]",IC50,[2]; [5],100 to 500 nM
"Cc1cc2c(c(NC(=O)NS(=O)(=O)c3cc(C(C)(C)O)co3)c1[C@H](C)C1CC1)CCC2 [Compound 90, (R)-N-((5-(1-cyclopropylethyl)-6-methyl-2,3-dihydro-1H-inden-4-yl)carbamoyl)-4-(2-hydroxypropan-2-yl)furan-2-sulfonamide]",IC50,[2]; [5],100 to 500 nM
"Cc1ccc(S(=N)(=O)NC(=O)Nc2c(C(C)C)cccc2C(C)C)cc1 (stereo not shown) [Compound 92-1, RS- and SS-N-((2,6-diisopropylphenyl)carbamoyl)-4-methylbenzenesulfonimidamide, reference compound]",IC50,[2]; THP-1 pyroptosis,> 10000 nM
"Cc1ccc(S(=N)(=O)NC(=O)Nc2c(C(C)C)cccc2C(C)C)cc1 (stereo not shown) [Compound 92-2, RS- and SS-N-((2,6-diisopropylphenyl)carbamoyl)-4-methylbenzenesulfonimidamide, reference compound]",IC50,[2]; THP-1 pyroptosis,> 10000 nM
"(RS, RC)- and (SS, RC)-N-((5-(1-cyclopropylethyl)-2,3-dihydro-1H-inden-4-yl-7-d)carbamoyl)-4-(2-hydroxypropan-2-yl)furan-2-sulfonimidamide [Compound 31-1]",IC50,[2]; THP-1 pyroptosis,100 to 500 nM
"(RS, SC)- and (SS, SC)-N-((5-(1-cyclobutylethyl)-2,3-dihydro-1H-inden-4-yl)carbamoyl)-4-(2-hydroxypropan-2-yl)furan-2-sulfonimidamide [Compound 82-2]",IC50,[2]; THP-1 pyroptosis,1000 to 5000 nM
"(RS, SC)- and (SS, SC)-N-((5-(1-cyclopropylethyl)-2,3-dihydro-1H-inden-4-yl)carbamoyl)-4-(2-hydroxypropan-2-yl-1,1,1,3,3,3-d6)furan-2-sulfonimidamide [Compound 49-1]",IC50,[2]; THP-1 pyroptosis,100 to 500 nM
"RS- and SS-N-((5-(cyclobutylmethyl)-2,3-dihydro-1H-inden-4-yl)carbamoyl)-4-(2-hydroxypropan-2-yl-1,1,1,3,3,3-d6)furan-2-sulfonimidamide [Compound 50-1]",IC50,[2]; THP-1 pyroptosis,500 to 1000 nM
"RS- and SS-N-((5-(cyclobutylmethyl)-2,3-dihydro-1H-inden-4-yl-7-d)carbamoyl)-4-(2-hydroxypropan-2-yl)furan-2-sulfonimidamide [Compound 39-2]",IC50,[2]; THP-1 pyroptosis,1000 to 5000 nM
